Data from ChEMBL document CHEMBL1201862, “PubChem BioAssay data set” (2004).
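Protocol summary: plate cells (96-well), add compound at 5 concentrations, incubate 48 h, interpolate endpoints linearly. GI50: concentration for 50% inhibition of growth.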 The source made the active and inactive calls. Cut-off read from the data, not from the text of the source: active = GI50 up to about 1.1 µM and inactive = higher.

Tests used:
Experiment in all cases: NCI-60 cell line screen, 48 h
[1] = system: SR
[2] = system: NCI-H460
[3] = system: EKVX
[4] = system: OVCAR-8
[5] = system: OVCAR-3
[6] = system: SK-MEL-2
[7] = system: SN12C
[8] = system: ACHN
[9] = system: HOP-92
[10] = system: SF-539
[11] = system: CCRF-CEM
[12] = system: HT-29
[13] = system: UACC-257
[14] = system: DU-145
[15] = system: SK-MEL-28
[16] = system: SW-620
[17] = system: K562
[18] = system: MDA-MB-231
[19] = system: SNB-75
[20] = system: NCI-H226

Structure (SMILES) | GI50 [1] | GI50 [2] | GI50 [3] | GI50 [4] | GI50 [5] | GI50 [6] | GI50 [7] | GI50 [8] | GI50 [9] | GI50 [10] | GI50 [11] | GI50 [12] | GI50 [13] | GI50 [14] | GI50 [15] | GI50 [16] | GI50 [17] | GI50 [18] | GI50 [19] | GI50 [20]
CC(=O)OCC1OC(n2c(N)c(C#N)c(-c3ccccc3)c(C#N)c2=S)C(OC(C)=O)C(OC(C)=O)C1OC(C)=O (stereo not given) | > 100 µM (inactive) | > 79.8 µM (inactive) | > 74.3 µM (inactive) | 34.9 µM (inactive) | > 100 µM (inactive) | > 58.9 µM (inactive) | > 100 µM (inactive) | > 85.7 µM (inactive) | 11.8 µM (inactive) | > 46.9 µM (inactive) | > 100 µM (inactive) | > 100 µM (inactive) | > 100 µM (inactive) | > 100 µM (inactive) | > 100 µM (inactive) | > 100 µM (inactive) | > 100 µM (inactive) | 34 µM (inactive) | 7.33 µM (inactive) | > 61.4 µM (inactive)
S=C(N/N=C\c1ccccn1)N(Cc1ccccn1)Cc1ccccn1 | 1.42 µM (inactive) | 1.11 µM (active) | 0.721 µM (active) | 0.367 µM (active) | 1.94 µM (inactive) | 11.6 µM (inactive) | 0.34 µM (active) | 0.316 µM (active) | 1.32 µM (inactive) | 4.68 µM (inactive) | < 0.019 µM (active) | 0.0822 µM (active) | 4.82 µM (inactive) | 2.29 µM (inactive) | 1.22 µM (inactive) | 0.333 µM (active) | 0.205 µM (active) | 0.419 µM (active) | 5.43 µM (inactive) | < 0.0419 µM (active)
COc1ccc2[nH]c(C(=O)N3CC(CCl)c4ccc([N+](=O)[O-])cc43)cc2c1 (stereo not given) | > 100 µM (inactive) | > 100 µM (inactive) | 54.1 µM (inactive) | > 80.9 µM (inactive) | > 100 µM (inactive) | > 100 µM (inactive) | > 100 µM (inactive) | > 100 µM (inactive) | > 100 µM (inactive) | > 90.4 µM (inactive) | > 100 µM (inactive) | > 95.7 µM (inactive) | > 100 µM (inactive) | > 100 µM (inactive) | > 100 µM (inactive) | > 100 µM (inactive) | > 100 µM (inactive) | > 23.4 µM (inactive) | > 37.7 µM (inactive) | 33.8 µM (inactive)
O=C(CCc1ccc(O)c(O)c1)NCCc1cc(OCc2ccccc2)cc(OCc2ccccc2)c1 | 2.88 µM (inactive) | 5.55 µM (inactive) | 13.1 µM (inactive) | 13.6 µM (inactive) | 5.92 µM (inactive) | 17.9 µM (inactive) | 10.4 µM (inactive) | 5.47 µM (inactive) | 8.87 µM (inactive) | 11.7 µM (inactive) | 1.77 µM (inactive) | 10.1 µM (inactive) | 28.1 µM (inactive) | 14.1 µM (inactive) | 10.8 µM (inactive) | 7.1 µM (inactive) | 5.92 µM (inactive) | 16.6 µM (inactive) | 4.98 µM (inactive) | 20.1 µM (inactive)
COc1cc(C(O)c2ccc3c(c2)OCO3)cc(OC)c1OC (stereo not given) | > 100 µM (inactive) | > 100 µM (inactive) | > 100 µM (inactive) | > 100 µM (inactive) | > 100 µM (inactive) | > 100 µM (inactive) | > 100 µM (inactive) | > 100 µM (inactive) | > 100 µM (inactive) | > 100 µM (inactive) | > 100 µM (inactive) | > 100 µM (inactive) | > 100 µM (inactive) | > 100 µM (inactive) | > 100 µM (inactive) | > 100 µM (inactive) | > 100 µM (inactive) | > 100 µM (inactive) | 73.5 µM (inactive) | > 100 µM (inactive)
COc1ccc2c(c1)-c1nn(CCN(C)C)c3ccc(C(=O)NCCCN(C)CCCNC(=O)c4ccc5c6c(c7cc(OC)ccc7nc46)NN5CCN(C)C)c(c13)N2 | 0.127 µM (active) | 0.0187 µM (active) | 0.143 µM (active) | 0.0133 µM (active) | 0.0933 µM (active) | 0.0184 µM (active) | 0.0225 µM (active) | 0.0607 µM (active) | 0.0478 µM (active) | < 0.01 µM (active) | < 0.01 µM (active) | 0.0213 µM (active) | 0.0702 µM (active) | 0.0284 µM (active) | 0.0561 µM (active) | 0.018 µM (active) | 0.0128 µM (active) | 0.114 µM (active) | 0.114 µM (active) | 0.155 µM (active)
C[C@H]1C2Cc3cc(O)ccc3[C@@]1(C)CCN2CCc1ccc(N)cc1 | 21.6 µM (inactive) | 30.3 µM (inactive) | > 100 µM (inactive) | 7.98 µM (inactive) | 14.2 µM (inactive) | 41.9 µM (inactive) | 98.9 µM (inactive) | 58.1 µM (inactive) | 1.71 µM (inactive) | 16.7 µM (inactive) | 18.5 µM (inactive) | 15.5 µM (inactive) | 18.6 µM (inactive) | > 100 µM (inactive) | 18.6 µM (inactive) | 15.3 µM (inactive) | 22.3 µM (inactive) | 34.9 µM (inactive) | > 100 µM (inactive) | > 100 µM (inactive)
CC(C)(C)CC(C)(C)N/C(N)=N/O | > 81.5 µM (inactive) | > 83.2 µM (inactive) | > 89.5 µM (inactive) | > 80 µM (inactive) | 22.2 µM (inactive) | > 100 µM (inactive) | > 100 µM (inactive) | 6.71 µM (inactive) | 20.3 µM (inactive) | > 60.8 µM (inactive) | > 100 µM (inactive) | > 100 µM (inactive) | 41.4 µM (inactive) | > 100 µM (inactive) | > 100 µM (inactive) | > 100 µM (inactive) | 28.8 µM (inactive) | > 100 µM (inactive) | > 86.5 µM (inactive) | 58.5 µM (inactive)
CCOC(=O)CCc1c(C)c2ccc(O)cc2oc1=O | > 100 µM (inactive) | > 100 µM (inactive) | > 100 µM (inactive) | > 100 µM (inactive) | > 100 µM (inactive) | > 100 µM (inactive) | > 100 µM (inactive) | > 100 µM (inactive) | > 100 µM (inactive) | > 100 µM (inactive) | > 100 µM (inactive) | > 100 µM (inactive) | > 100 µM (inactive) | > 100 µM (inactive) | > 100 µM (inactive) | > 100 µM (inactive) | > 100 µM (inactive) | > 100 µM (inactive) | > 100 µM (inactive) | > 100 µM (inactive)
